In patent publication US9108958B2, “Selective CCR2 antagonists” (Boehringer Ingelheim International GmbH, priority 2011, dated 2015):

Assays:
human CCR5 = molecular target: T1, human CCR5 (Homo sapiens, UniProt P51681); experiment: CCR5 receptor membrane binding assay ([125I]RANTES, CHO (Gα16) human CCR5 cell membranes, SPA beads); conditions: bound radioactivity after 6 h, read-out: hKi [nM] (CCR5)
T1 construct: expressed in transfected cells; host or cells: CHO cells co-expressing Gα16, under puromycin and zeocin selection; membrane preparation
Description: The above exemplary substances have been tested for binding to CCR5 using a binding assay as outlined herein below:
CHO, (Gα16) human CCR5 cells were cultured under standardized conditions at 37° C. and 5% CO2 in a humidified incubator. CHO (Gα16) human CCR5 cells were cultivated in Ham's F12 (Invitrogen; #31765068) supplemented with 10 μg/ml Puromycin (Invitrogen; #A11139-03), 200 μg/ml Zeocin (Invitrogen; #45-0003) and 10% FCS (Gibco; #10500-064).
Membranes were prepared from CHO (Gα16) human CCR5 cells. Cells were cultured on […] plates (Nunc; #166508) 2-3 days before membrane preparation (usually 80-100 plates to obtain 80 mg protein).
Cells were scraped off the plates with a big scraper and washed with 2×5 ml ice cold Phosphate Buffer Saline (PBS; Invitrogen; #14040-174). Cell suspension was collected in a glass bottle (on ice). Cell suspension was harvested at 1400 rpm and 4° C. for 10 min and washed in PBS. Cell pellet was resuspended in 40 ml PBS with protease inhibitor mix ‘complete’ (Roche; #11873580001; 1 tablet/50 ml).
For gentle cell disruption the membrane preparation was performed by using a homogenizer (potter). Cells were homogenized for 5-10 min.
Membranes were centrifuged at 1000 rpm and 4° C. for 5 min Supernatant (=membrane) was harvested in a new falcon tube and remaining cell pellet homogenized again for 5-10 min with PBS with protease inhibitor mix and centrifuged. Collected supernatant was centrifuged at 40000 rpm and 4° C. for 30 min to sediment the cell membranes.
The membranes were resuspended in 25 mM HEPES, 25 mM MgCl2, 1 mM CaCl2, 10% Glycerine for storage in aliquots at −80° C. Membranes were diluted to a concentration of 5 mg/ml (Bradford Assay).
(§1) Receptor Membrane Binding Assay:
[^125I]RANTES, Stock: 1825 Ci/mmol, 25 μCi (Bio Trend #A3-AI-676) was solved in 1000 μl assay buffer (100 mM NaCl; 10 mM MgCl2; 50 mM Tris-HCl; 1 mM EDTA; 0.1% BSA, pH 7.6), stored at −20° C.
CHO (Gα16) human CCR5 membrane were solved on ice and adjusted with assay buffer to a concentration of 2.5 μg/15 μl.
Amersham Biosciences PVT-WGA Beads (GE Healthcare; #RPNQ0001) were adjusted with assay buffer to a concentration of 8 mg/ml. For preparation of the membrane-bead-suspension, membranes and beads were incubated for 30 min at RT under rotation with a ratio of 1:2.
Test compounds dissolved in 100% DMSO to a concentration of 10 mM and are further diluted with 100% DMSO to 1 mM. All additional compound dilutions were obtained with assay buffer, final 1% DMSO. 7 μl compound dilution, 45 μl membrane-bead-suspension and 10 μl [^125I]RANTES (ca. 20000 cpm/10 μl) were incubated at RT. Bound radioactivity was determined by scintillation counter after 6 h. Determination of affinity of test compounds (dissociation constant Ki) is calculated by iterative fitting of experimental data using the “easy sys” program, which is based on law of mass action (Schittkowski K. (1994), Numerische Mathematik, Vol. 68, 129-142).

CCR2 = molecular target: T2, CCR2 (Homo sapiens, UniProt P41597); experiment: CCR2 receptor membrane binding assay ([125I]MCP-1, THP-1 cell membranes, SPA beads); conditions: THP-1 membranes, [125I]MCP-1, bound radioactivity after 8 h; read-out: hKi [nM](CCR2)
T2 construct: Membranes were prepared from THP-1 cells; endogenous in cells; host or cells: THP-1 (human acute monocytic leukaemia cells), membrane preparation
T2 sequence (P41597 1-360 isoform P41597-2): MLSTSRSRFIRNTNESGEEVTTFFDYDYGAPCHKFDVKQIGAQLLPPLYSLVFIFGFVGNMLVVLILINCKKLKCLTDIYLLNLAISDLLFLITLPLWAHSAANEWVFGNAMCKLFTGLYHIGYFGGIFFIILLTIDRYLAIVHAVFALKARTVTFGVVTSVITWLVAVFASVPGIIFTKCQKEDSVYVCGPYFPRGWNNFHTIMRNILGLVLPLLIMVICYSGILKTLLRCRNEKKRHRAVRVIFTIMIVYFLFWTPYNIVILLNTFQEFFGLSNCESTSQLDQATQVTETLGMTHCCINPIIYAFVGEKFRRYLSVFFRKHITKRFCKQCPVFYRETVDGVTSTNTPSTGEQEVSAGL
Description: The above exemplary substances have been tested for binding to CCR2 using a binding assay as outlined herein below:
THP-1 cells (human acute monocytic leukaemia cells) were cultured under standardized conditions at 37° C. and 5% CO2 in a humidified incubator. THP-1 cells were cultivated in RPMI 1640 medium (Gibco 21875) containing 1% MEM-NEAA (Gibso 11140) 2 mM L-glutamine, 1.5 g/L sodium bicarbonate, 4.5 g/L glucose, 10 mM HEPES and 1.0 mM sodium pyruvate, 90%; 10% fetal calf serum (FCS Gibco 10500-064).
Membranes were prepared from THP-1 cells. THP-1 cells were centrifuged at 300×g at 4° C. for 10 min. The cell pellet was resuspendet in Phosphate Buffer Saline (PBS, including 10 μM Pefabloc and a protease inhibitor mix ‘complete’, Boehringer Mannheim (1 tablet/50 ml)), to a concentration of […]. The membrane preparation was performed by disrupting the cells by nitrogen […] (at 50 bar, for 1 h) in a “Nitrogen Bombe” (Parr Instrument). Cell debris was removed by centrifugation (800×g at 4° C., 1 min) The supernatant was centrifuged at 80000×g, 4° C. for 30 min to sediment the cell membranes. Usually 50 mg of protein (Bradford assay) were yielded from 1×10E9 cells. The membranes were resuspendet in 25 mM HEPES, 25 mM MgCl2, 1 mM CaCl2, 10% Glycerine for storage in aliquots at −80° C. in 25 mM HEPES, 25 mM MgCl2, 1 mM CaCl2, 10% Glycerine and stored at −80° C.
as §1
Perkin Elmer NEX 332 Jod^125 MCP-1, Stock: 2200 Ci/mmol solved in 2000 μl assay buffer, stored at −20° C. THP-1 membrane were adjusted with 25 mM HEPES, pH 7.2; 5 mM MgCl2; 0.5 mM CaCl2; 0.2% BSA assay buffer to a concentration of 2.5 μg/15 μl. Amersham Biosciences PVT-WGA Beads (RPNQ0001) were adjusted with assay buffer to a concentration of 0.24 mg/30 μl. For preparation of the membrane-bead-suspension membranes and beads were incubated for 30 min at RT under rotation (60 rpm) with a ratio of 1:2. Test compounds dissolved in 100% DMSO to a concentration of 10 mM and are further diluted with 100% DMSO to 1 mM. All additional compound dilutions were obtained with assay buffer, final 1% DMSO. Compounds, membrane-bead-suspension and [^125I]MCP-1 (ca. 25000 cpm/10 μl) were incubated. Bound radioactivity was determined by scintillation counter after 8 h. Determination of affinity of test compounds (dissociation constant hKi) is calculated by iterative fitting of experimental data using the “easy sys” program, which is based on law of mass action (Schittkowski K. (1994), Numerische Mathematik, Vol. 68, 129-142).

T1 sequence (P51681 whole entry): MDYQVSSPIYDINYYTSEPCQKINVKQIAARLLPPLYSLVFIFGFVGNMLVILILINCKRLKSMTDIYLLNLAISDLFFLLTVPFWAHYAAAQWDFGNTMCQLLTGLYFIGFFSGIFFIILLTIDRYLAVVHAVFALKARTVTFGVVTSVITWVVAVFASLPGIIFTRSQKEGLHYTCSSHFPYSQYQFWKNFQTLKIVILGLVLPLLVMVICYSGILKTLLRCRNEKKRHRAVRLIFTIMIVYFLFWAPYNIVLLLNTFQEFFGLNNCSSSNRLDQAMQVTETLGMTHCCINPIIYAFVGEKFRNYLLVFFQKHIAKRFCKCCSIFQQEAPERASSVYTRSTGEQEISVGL

Structure (SMILES): Cc1c(C(=O)N2CCC(N[C@H]3CCOC[C@H]3F)CC2)nc(CF)nc1N1CCc2ccc(C(F)(F)F)cc2C1 (relative stereo) [Example 45]
- Ki (human CCR5): 3450 nM
- Ki (CCR2): 17 nM

Structure (SMILES): Cc1c(C(=O)N2CCC(N[C@H]3CCOC[C@@H]3F)CC2)nc(CF)nc1N1CCc2ccc(C(F)(F)F)cc2C1 (relative stereo) [Example 46]
- Ki (human CCR5): 3680 nM
- Ki (CCR2): 34 nM

Structure (SMILES): CO[C@H]1COCC[C@H]1NC1CCN(C(=O)c2nc(C(F)(F)F)nc(N3CCc4ccc(C(F)(F)F)cc4C3)c2C)CC1 [Example 1]
- Ki (human CCR5): 265 nM
- Ki (CCR2): 3 nM

Structure (SMILES): CO[C@@H]1COCC[C@@H]1NC1CCN(C(=O)c2nc(C(F)(F)F)nc(N3CCc4ccc(C(F)(F)F)cc4C3)c2C)CC1 [Example 2]
- Ki (human CCR5): 150 nM
- Ki (CCR2): 2 nM

Structure (SMILES): CO[C@H]1COCC[C@H]1NC1CCN(C(=O)c2nc(C3CCOCC3)nc(N3CCc4cc(C(F)(F)F)ccc4C3)c2C)CC1 [Example 3]
- Ki (human CCR5): 700 nM
- Ki (CCR2): 4 nM

Structure (SMILES): CO[C@@H]1COCC[C@@H]1NC1CCN(C(=O)c2nc(C3CCOCC3)nc(N3CCc4cc(C(F)(F)F)ccc4C3)c2C)CC1 [Example 4]
- Ki (human CCR5): 310 nM
- Ki (CCR2): 2 nM

Structure (SMILES): Cc1c(C(=O)N2CCC(N[C@H]3CCOC[C@H]3F)CC2)nc(C2CCOCC2)nc1N1CCc2cc(C(F)(F)F)ccc2C1 [Example 5]
- Ki (human CCR5): 4580 nM
- Ki (CCR2): 14 nM

Structure (SMILES): Cc1cc(-c2nc(C(=O)N3CCC(N[C@@H]4CCOC[C@@H]4F)CC3)c(C)c(N3CCc4cc(C(F)(F)F)ccc4C3)n2)no1 [Example 6]
- Ki (human CCR5): 17300 nM
- Ki (CCR2): 20 nM

Structure (SMILES): CO[C@@H]1COCC[C@@H]1NC1CCN(C(=O)c2nc(-c3cc(C)on3)nc(N3CCc4cc(C(F)(F)F)ccc4C3)c2C)CC1 [Example 7]
- Ki (human CCR5): 380 nM
- Ki (CCR2): 8 nM

Structure (SMILES): Cc1c(C(=O)N2CCC(N[C@@H]3CCOC[C@@H]3F)CC2)nc(C2CCOCC2)nc1N1CCc2cc(C(F)(F)F)ccc2C1 [Example 8]
- Ki (human CCR5): 5870 nM
- Ki (CCR2): 11 nM

Structure (SMILES): Cc1cc(-c2nc(C(=O)N3CCC(N[C@H]4CCOC[C@H]4F)CC3)c(C)c(N3CCc4cc(C(F)(F)F)ccc4C3)n2)no1 [Example 9]
- Ki (human CCR5): 3400 nM
- Ki (CCR2): 38 nM

Structure (SMILES): CO[C@H]1COCC[C@H]1NC1CCN(C(=O)c2nc(-c3cc(C)on3)nc(N3CCc4cc(C(F)(F)F)ccc4C3)c2C)CC1 [Example 10]
- Ki (human CCR5): 850 nM
- Ki (CCR2): 15 nM

Structure (SMILES): CO[C@H]1COCC[C@H]1NC1CCN(C(=O)c2nc(C3CCOCC3)nc(N3CCc4ccc(C(F)(F)F)cc4C3)c2C)CC1 [Example 11]
- Ki (human CCR5): 430 nM
- Ki (CCR2): 0.8 nM

Structure (SMILES): CO[C@@H]1COCC[C@@H]1NC1CCN(C(=O)c2nc(C3CCOCC3)nc(N3CCc4ccc(C(F)(F)F)cc4C3)c2C)CC1 [Example 12]
- Ki (human CCR5): 46 nM
- Ki (CCR2): 0.6 nM

Structure (SMILES): Cc1c(C(=O)N2CCC(N[C@H]3CCOC[C@H]3F)CC2)nc(C2CCOCC2)nc1N1CCc2ccc(C(F)(F)F)cc2C1 [Example 13]
- Ki (human CCR5): 1300 nM
- Ki (CCR2): 5 nM

Structure (SMILES): CO[C@@H]1COCC[C@@H]1NC1CCN(C(=O)c2nc(-c3cc(C)on3)nc(NC[C@H]3CCC[C@@H](c4ccc(C(F)(F)F)cc4)O3)c2C)CC1 [Example 22]
- Ki (CCR2): 0.7 nM

Structure (SMILES): Cc1cc(-c2nc(NC[C@H]3CCC[C@@H](c4ccc(C(F)(F)F)cc4)O3)c(C)c(C(=O)N3CCC(N[C@H]4CCOC[C@H]4F)CC3)n2)no1 [Example 23]
- Ki (CCR2): 1 nM

Structure (SMILES): CO[C@H]1COCC[C@H]1NC1CCN(C(=O)c2nc(-c3cc(C)on3)nc(NC[C@H]3CCC[C@@H](c4ccc(C(F)(F)F)cc4)O3)c2C)CC1 [Example 25]
- Ki (CCR2): 1 nM

Structure (SMILES): CO[C@@H]1COCC[C@@H]1NC1CCN(C(=O)c2cc(NC[C@H]3CCC[C@@H](c4ccc(C)cc4)O3)nc(CF)n2)CC1 [Example 30]
- Ki (CCR2): 3 nM

Structure (SMILES): Cc1ccc([C@@H]2CCC[C@H](CNc3cc(C(=O)N4CCC(NC5CCOCC5F)CC4)nc(CF)n3)O2)cc1 (some centres unmarked) [Example 31]
- Ki (CCR2): 15 nM

Structure (SMILES): CO[C@H]1COCC[C@H]1NC1CCN(C(=O)c2cc(NC[C@H]3CCC[C@@H](c4ccc(C)cc4)O3)nc(CF)n2)CC1 [Example 32]
- Ki (CCR2): 5 nM

Structure (SMILES): Cc1c(C(=O)N2CCC(NC3CCOCC3)CC2)nc(C(F)(F)F)nc1N1CCc2ccc(C(F)(F)F)cc2C1 [Example 33]
- Ki (CCR2): 7 nM

Structure (SMILES): Cc1c(Nc2ccc(Cl)c(Cl)c2)nc(CF)nc1C(=O)N1CCC(N2CCC(N(C)S(C)(=O)=O)CC2)CC1 [Example 36]
- Ki (CCR2): 2 nM

Structure (SMILES): Cc1c(Nc2ccc(Cl)c(Cl)c2)nc(CF)nc1C(=O)N1CCC(N2CCOCC2)CC1 [Example 38]
- Ki (CCR2): 37 nM

Structure (SMILES): CO[C@@H]1COCC[C@@H]1NC1CCN(C(=O)c2cc(NC[C@H]3CCC[C@@H](c4ccc(SC)cc4)O3)nc(CF)n2)CC1 [Example 39]
- Ki (CCR2): 4 nM

Structure (SMILES): CO[C@H]1COCC[C@H]1NC1CCN(C(=O)c2cc(NC[C@H]3CCC[C@@H](c4ccc(SC)cc4)O3)nc(CF)n2)CC1 [Example 41]
- Ki (CCR2): 2 nM

Structure (SMILES): CC(=O)N1CCC(c2nc(Nc3ccc(Cl)c(Cl)c3)c(C)c(C(=O)N3CCC(N[C@@H]4CCOC[C@@H]4F)CC3)n2)CC1 [Example 42]
- Ki (CCR2): 17 nM

Structure (SMILES): CC(=O)N1CCC(c2nc(Nc3ccc(Cl)c(Cl)c3)c(C)c(C(=O)N3CCC(N[C@H]4CCOC[C@H]4F)CC3)n2)CC1 [Example 43]
- Ki (CCR2): 19 nM

Structure (SMILES): CO[C@@H]1COCC[C@@H]1NC1CCN(C(=O)c2nc(C3CCN(C(C)=O)CC3)nc(Nc3ccc(Cl)c(Cl)c3)c2C)CC1 [Example 44]
- Ki (CCR2): 4 nM
